Earlier results as cited in patent publication US20240292871A1, “A SWEETENER OR SWEETNESS ENHANCER COMPOSITION” (ANALYTICON DISCOVERY GMBH, priority 2020, published 2024).

Settings: 5% sucrose in water

COc1ccc([C@@H]2CC(=O)c3c(O)cc(O)cc3O2)cc1O [hesperetin]
enhances the sweetness of sucrose: 41%
